# Test results reported in patent US20110218143A1, “COMPOSITIONS AND METHODS FOR TISSUE REPAIR” (UNIVERSITY OF FLORIDA RESEARCH FOUNDATION, priority 2007, published 2011).
# Several values for one entry are separate records, joined by “and”; a condition that tells them apart may be missing. Equal values may be shown once. Entries after “also recorded” stand apart in the source; their conditions may differ.
# Experiments:
# [1] = system: cytokine production in mouse blood; experiment: Cytokine/chemokine levels in blood serum (Millipore 21-Plex, Luminex); format: in vivo, C57BL6/J mice
# Procedure: Mice received either a placebo, celastrol (3.0 mg/kg), or 17-AAG (10 mg/kg) by intraperitoneal injection. Blood samples were taken from all groups of mice at 0, 1, 3, 6, 24, 48, and 72 hours after administration of the placebo, celastrol, or 17-AAG. The blood samples were analyzed for cytokine production, including the production of granulocyte-macrophage colony-stimulating factor (GM-CSF), interferon-gamma (IFN-γ), interleukin-10 (IL-10), interleukin-12 subunit beta (IL-12p40), interleukin-12 heterodimer (IL-12p70), interleukin-12 homodimer (IL-12p80), vascular endothelial growth factor (VEGF), tumor necrosis factor-alpha (TNF-α), keratinocyte derived chemokine (KC), RANTES (Regulated upon Activation, Normal T-cell Expressed, and Secreted; CCL5), monocyte chemotactic protein-1 (MCP 1), macrophage inflammatory protein (MIP1β; CCL4), interleukin-4 (IL-4), interleukin-3 (IL-3), interleukin-2 (IL-2), interleukin-1 beta (IL-1β), interleukin-1 alpha (IL-1α), interleukin-9 (IL-9), interleukin-13 (IL-13), interleukin-17 (IL-17), interleukin-6 (IL-6), and interleukin-5 (IL-5). Blood serum was analyzed using a commercially available kit (e.g., Mouse cytokine/chemokine panel: 21-Plex; Millipore). Blood serum (50 μl) was assayed in duplicate using a commercially available cytokine/chemokine detection kit from Millipore following the protocol given with the product information. The final measurement was performed using a commercially available detector (e.g., computer-operated Luminex 100 IS system) and the results were expressed as pg/ml blood serum sample. Levels of cytokines in blood were quantitated as a concentration of the total volume of the sample.
# [2] = system: mice with ALF induced by TAA; experiment: Survival in TAA induced acute liver failure; format: in vivo, C57BL6/J mice; conditions: TAA 1000 mg/kg and celastrol 3 mg/kg i.p.; examined 3 days or longer; TAA alone 100% mortality
# Procedure: Thiomacetamide (TAA) was administered to C57BL6/J mice to induce liver damage. Groups of at least 6 C57BL6/J mice received either TAA (1000 mg/kg) and a placebo, TAA (1000 mg/kg) and celastrol (3 mg/kg), or placebo only by intraperitoneal injection. Mice were examined for 3 days or longer to determine survival (FIG. 12).
# NOD mice = experiment: Blood glucose / diabetes incidence in NOD mouse model; format: in vivo
# Procedure: The NOD mouse is recognized as a model for human Type1 diabetes (Anderson and Bluestone, “THE NOD MOUSE: A Model of Immune Dysregulation” Annual Review of Immunology 23: 447-485, 2005, which is incorporated by reference in its entirety). Celastrol was administered to the mice at the rate of 3.0 mg/kg body weight via intra-peritoneal injection once a week in NOD mice starting from 4 weeks of age. When mice attained 11 weeks of age, the compound was administered at the rate of 3.3 mg/kg body weight via oral gavage three times a week up to 30 weeks of age. Blood glucose levels were measured at the time of celastrol administration once a week from 4-10 weeks and three times a week from 11-30 weeks. Mice in control group were treated with placebo.
# [3] = system: irradiated wild type mice, C57BL/6; experiment: Transfer of blood cells of treated GFP mice into irradiated wild type mice; format: in vivo, C57BL/6 mice
# Procedure: As reported herein, celastrol activated and mobilized stem cells into peripheral blood. These observations were extended using GFP mice to analyse stem cell mobilization. Mice expressing GFP in their bone marrow were treated with celastrol and placebo. Blood samples were collected on the third day and red blood cells were lysed. White blood cells containing mobilized stem cells, if any, were injected at 0.5×10^6 cells per mouse through retro-orbital sinus into wild type mice, C57BL/6 that were irradiated to destroy the hematopoietic systems. Cells obtained from placebo-treated GFP mice were injected into a group of wild type mice which served as control. Blood samples from wild type mice that received stem cells from celastrol-treated GFP mice were analyzed after 3, 4 and 5 months of transfer.
# [4] = celastrol 3.0 mg/kg i.p., over the course of the experiment
# [5] = celastrol 3.0 mg/kg i.p., throughout the 72 hour time course
# [6] = i.p. celastrol 3.0 mg/kg or 17-AAG 10 mg/kg, 72 hour time course
# [7] = i.p. celastrol 3.0 mg/kg or 17-AAG 10 mg/kg, sampled 0-72 h
# [8] = i.p. celastrol 3.0 mg/kg or 17-AAG 10 mg/kg, sampled 0-72 h, vs placebo control
structure (smiles),measurement,setting,value
CC1=C(O)C(=O)C=C2C1=CC=C1[C@@]2(C)CC[C@@]2(C)[C@@H]3C[C@](C)(C(=O)O)CC[C@]3(C)CC[C@]12C [celastrol],level of GM-CSF compared to placebo control,"[1]; celastrol 3.0 mg/kg i.p., 72 hour time course",elevated again between 24 and 48 hours; also recorded: elevated again 6 to 48 hours
same,level of IL-9 compared to placebo control,"[1]; celastrol 3.0 mg/kg i.p., after peak",remained slightly elevated up to 72 hours
same,level of IL-6 compared to placebo control,[1]; [4],not significantly different
same,level of RANTES compared to placebo control,[1]; [4],not significantly different
same,level of IL-2 compared to placebo control,[1]; [5],slightly elevated
same,level of VEGF compared to placebo control,[1]; [5],slightly elevated
same,level of IL-1α compared to placebo control,"[1]; celastrol 3.0 mg/kg i.p., throughout the experiment",slightly decreased
same,level of IL-13 compared to placebo control,"[1]; celastrol 3.0 mg/kg i.p., up to 48 hours post treatment, risen again by 72 hours",slightly elevated
same,level of IL-17 compared to placebo control,[1]; i.p. celastrol 3.0 mg/kg (throughout 72 hours) or 17-AAG 10 mg/kg (up to 48 hours),slightly elevated
same,level of IFN-γ compared to placebo control,[1]; [6],slightly elevated
same,level of IL-5 compared to placebo control,[1]; [6],not significantly different
same,level of IL-12p40 compared to placebo control,[1]; [6],slightly elevated
same,time by which GM-CSF (elevated pre treatment) declined to placebo control levels,[1]; [7],≤ 6 h
same,time by which IL-3 (slightly elevated pre treatment) declined to placebo control levels,[1]; [7],≤ 1 h
same,time by which IL-4 (slightly elevated pre treatment) declined to placebo control levels,[1]; [7],≤ 1 h
same,time by which MIP1β returned or declined to placebo control levels,[1]; [7],≤ 6 h
same,time by which TNF-α (elevated pre treatment) declined to placebo control levels,[1]; [7],≤ 6 h
same,time of peak level of IL-9 post treatment,[1]; [8],around 3 hours
same,time of peak level of KC post treatment,[1]; [8],around 6 hours
same,survival,[2],71.4%
same,mice that became hyperglycemic (more than 250 mg/dL),"NOD mice; celastrol 3.0 mg/kg i.p. once a week from 4 weeks, 3.3 mg/kg oral gavage three times a week from 11 to 30 weeks of age, at 23 weeks of age",twenty
same,mice euglycemic or normoglycemic (less than 250 mg/dL),"NOD mice; same regimen, up to 30 weeks of age",Eighty
same,recipient mice surviving for at least 5 months,"[3]; irradiated mice given 0.5×10^6 white blood cells from celastrol treated GFP mice, n=4, placebo-cell recipients died between 12 and 16 days",50%
same,survival time of the other two recipient mice,[3]; irradiated mice given cells from celastrol treated GFP mice,17 days and 25 days
